Assay: quantitative evaluation of intradermoplantar edema induced by lambda-carrageenan in guinea pigs (plethysmometer)
Conditions: for anti-inflammatory effect with respect to the carrageenan standard (S2): p<0.000, one way variance analysis and Tukey's multiple comparisons, at the experimental doses used
Procedure: This inoculation initiates an inflammatory process defined as the standard inflammatory constant of all the preclinical trials.
The comparative evaluation is performed by measuring with a plethysmometer the change in volume in milliliters of mercury and expressing the results in absolute volume (ml) and relative percentage (°/l or %) values versus the variable of time in hours (h).
The inflammatory response is induced by inoculating carrageenan into the animal's plantar pad, and the change in volume is measured with a plethysmometer in milliliters of mercury.
The technique employed is adapted to a biological model of guinea pigs, and evaluates the intensity of the edema as the increase or decrease in the proportion of relative inflamed volume. The equation which describes this variable is: postinoculation volume minus preinoculation control volume divided by preinoculation control volume.
The method of measurement is composed of three basic steps:
Measurement of the clinical parameter inflammation volume obtained on inoculating an inflammatory noxa. This procedure constitutes the inflammatory standard (inflammatory control).
Measurement of the change in the clinical parameter inflammation volume by applying to the inflammatory standard a drug recognized as anti-inflammatory reference substance (anti-inflammatory control).
Measurement of the change in the clinical parameter inflammation volume by applying to the inflammatory standard an anti-inflammatory composition and/or subcompositions (invention).
Standard (S2): 0.1 ml of the pharmaceutically acceptable injectable formulation containing 1% of lambda-carrageenan, prepared according to standard processes in sterile water for injections and administered via the intradermoplantar route. Single dose of carrageenan between 3.6 and 3.9 mg/kg animal body weight.
Reference substance (P1): 2.0 ml of the pharmaceutically acceptable injectable formulation containing 6.25% of acetylsalicylic acid (ASA), prepared according to standard processes in sterile water for injections and administered intraperitoneally. Single dose of ASA, between 418.1 and 490.2 mg/kg animal body weight.

## CC(=O)Oc1ccccc1C(=O)O [ASA (P1), acetylsalicylic acid]
0 h, ASA 418.1-490.2 mg/kg i.p. single dose
  % Inflammation: 00.000%
1 h, ASA 418.1-490.2 mg/kg i.p. single dose
  % Inflammation: 05.620%
2 h, ASA 418.1-490.2 mg/kg i.p. single dose
  % Inflammation: 13.700%
3 h, ASA 418.1-490.2 mg/kg i.p. single dose
  % Inflammation: 10.450%
4 h, ASA 418.1-490.2 mg/kg i.p. single dose
  % Inflammation: 12.020%
5 h, ASA 418.1-490.2 mg/kg i.p. single dose
  % Inflammation: 12.100%
6 h, ASA 418.1-490.2 mg/kg i.p. single dose
  % Inflammation: 10.450%
7 h, ASA 418.1-490.2 mg/kg i.p. single dose
  % Inflammation: 09.810%
  anti-inflammatory effect with respect to the carrageenan standard (S2): significant anti-inflammatory effect

## O=C(O)Cc1ccccc1Nc1c(Cl)cccc1Cl [DICLO (P2), diclofenac sodium]
0 h, diclofenac sodium 94.8-105.8 mg/kg i.p. single dose
  % Inflammation: 00.000%
1 h, diclofenac sodium 94.8-105.8 mg/kg i.p. single dose
  % Inflammation: 12.500%
2 h, diclofenac sodium 94.8-105.8 mg/kg i.p. single dose
  % Inflammation: 12.600%
5 h, diclofenac sodium 94.8-105.8 mg/kg i.p. single dose
  % Inflammation: 11.400%
6 h, diclofenac sodium 94.8-105.8 mg/kg i.p. single dose
  % Inflammation: 12.300%
  anti-inflammatory effect with respect to the carrageenan standard (S2): significant anti-inflammatory effect

From patent publication US5747462A, “Pharmaceutically active compounds and their use” (priority 1995, dated 1998)
